Measured values reported in article PMC9603901, “Therapeutic Potential of Antimicrobial Peptide PN5 against Multidrug-Resistant E. coli and Anti-Inflammatory Activity in a Septic Mouse Model” (Microbiology Spectrum, 2022).
In brackets after ≈: the same amount, converted by molar mass. Read-outs that look alike come from different tables or passages of the source. Where no end group is shown, it is not given here.

Legend:
MDR E. coli ASEC 2 = tested on: MDR E. coli ASEC 2; set-up: method as in Asan hospital; key to susceptibility category: S: susceptible; R: resistant; I: intermediate; conditions: ref Asan hospital, cited from earlier work; for MIC: ASEC 2 (NDM-7), resistance information of clinical isolate; for susceptibility category: ASEC 2
MDR E. coli ASEC 13 = tested on: MDR E. coli ASEC 13; set-up: method as in Asan hospital; key to susceptibility category: S: susceptible; R: resistant; I: intermediate; conditions: ref Asan hospital, cited from earlier work; for MIC: ASEC 13 (AmpC), resistance information of clinical isolate; for susceptibility category: ASEC 13
MDR E. coli ASEC 9 = tested on: MDR E. coli ASEC 9; set-up: method as in Asan hospital; key to susceptibility category: S: susceptible; R: resistant; I: intermediate; conditions: ref Asan hospital, cited from earlier work; for MIC: ASEC 9 (ESBL), resistance information of clinical isolate; for susceptibility category: ASEC 9
MDR E. coli ASEC 11 = tested on: MDR E. coli ASEC 11; set-up: method as in Asan hospital; key to susceptibility category: S: susceptible; R: resistant; I: intermediate; conditions: ref Asan hospital, cited from earlier work; for MIC: ASEC 11 (ESBL), resistance information of clinical isolate; for susceptibility category: ASEC 11
MDR E. coli ASEC 19 = tested on: MDR E. coli ASEC 19; set-up: method as in Asan hospital; key to susceptibility category: S: susceptible; R: resistant; I: intermediate; conditions: ref Asan hospital, cited from earlier work; for MIC: ASEC 19 (AmpC), resistance information of clinical isolate; for susceptibility category: ASEC 19
MDR E. coli ASEC 1 [1] = tested on: MDR E. coli ASEC 1; set-up: method as in Asan hospital; key to susceptibility category: S: susceptible; R: resistant; I: intermediate; conditions: ref Asan hospital, cited from earlier work; for MIC: ASEC 1 (carbapenemase NDM-1), resistance information of clinical isolate; for susceptibility category: ASEC 1
MDR E. coli ASEC 17 [2] = tested on: MDR E. coli ASEC 17; set-up: method as in Asan hospital; key to susceptibility category: S: susceptible; R: resistant; I: intermediate; conditions: ref Asan hospital, cited from earlier work; for MIC: ASEC 17 (AmpC), resistance information of clinical isolate; for susceptibility category: ASEC 17
MDR E. coli ASEC 6 = tested on: MDR E. coli ASEC 6; set-up: method as in Asan hospital; key to susceptibility category: S: susceptible; R: resistant; I: intermediate; conditions: ref Asan hospital, cited from earlier work; for MIC: ASEC 6 (ESBL), resistance information of clinical isolate; for susceptibility category: ASEC 6
MDR E. coli ASEC 5 [3] = tested on: MDR E. coli ASEC 5; set-up: method as in Asan hospital; key to susceptibility category: S: susceptible; R: resistant; I: intermediate; conditions: ref Asan hospital, cited from earlier work; for MIC: ASEC 5 (ESBL), resistance information of clinical isolate; for susceptibility category: ASEC 5
MDR E. coli ASEC 14 = tested on: MDR E. coli ASEC 14; set-up: method as in Asan hospital; key to susceptibility category: S: susceptible; R: resistant; I: intermediate; conditions: ref Asan hospital, cited from earlier work; for MIC: ASEC 14 (AmpC), resistance information of clinical isolate; for susceptibility category: ASEC 14
MDR E. coli ASEC 4 = assay: microbe, parasite or virus in culture; type: cell-based, Escherichia coli; conditions: microdilution, LB, 18 to 24 h, 37°C, three independent experiments
Procedure: (§1) Bacterial cells were cultured at 37°C in the appropriate culture media with shaking (180 rpm). Luria-Bertani broth (LB) (244620; BD Difco) was used for E. coli ATCC 25922, ASEC strains, and B. subtilis KCTC 2217. Nutrient broth (NB) (234000; BD Difco) was used for P. aeruginosa ATCC 27853, S. Typhimurium KCTC 1926, and A. baumannii KCTC 2508. Tryptic soy broth (TSB) (211825; BD Difco) was used for S. aureus ATCC 25923. Finally, brain heart infusion (BHI) (237500; BD Difco) was used for L. monocytogenes KCTC 3710. The antimicrobial activity of each peptide was determined using microdilution assays. To this end, 2-fold serial dilution series of each peptide (from 1 to 64 μM) were added to duplicate media with 10 mM sodium phosphate buffer (pH 7.4). Fifty microliters of the peptide and antibiotic solution was added to each well of a 96-well plate (32096, surface nontreatment; SPL Life Sciences). Then, 50 μL of 2 × 10^5 CFU mL^−1 of bacteria was added to each well, and the samples were incubated for 18 to 24 h without shaking at 37°C.

MDR E. coli ASEC 16 = assay: microbe, parasite or virus in culture; type: cell-based, Escherichia coli; conditions: microdilution, LB, 18 to 24 h, 37°C, three independent experiments
Procedure: as §1

MDR E. coli ASEC 17 [4] = assay: microbe, parasite or virus in culture; type: cell-based, Escherichia coli; conditions: microdilution, LB, 18 to 24 h, 37°C, three independent experiments
Procedure: as §1

MDR E. coli ASEC 1 [5] = assay: microbe, parasite or virus in culture; type: cell-based, Escherichia coli; conditions: microdilution, LB, 18 to 24 h, 37°C, three independent experiments
Procedure: as §1

MDR E. coli ASEC 5 [6] = assay: microbe, parasite or virus in culture; type: cell-based, Escherichia coli; conditions: microdilution, LB, 18 to 24 h, 37°C, three independent experiments
Procedure: as §1

MDR E. coli ASEC 8 = tested on: MDR E. coli ASEC 8; set-up: method as in Asan hospital; key to susceptibility category: S: susceptible; R: resistant; I: intermediate; conditions: ref Asan hospital, cited from earlier work; for MIC: ASEC 8 (ESBL), resistance information of clinical isolate; for susceptibility category: ASEC 8
MDR E. coli ASEC 3 = tested on: MDR E. coli ASEC 3; set-up: method as in Asan hospital; key to susceptibility category: S: susceptible; R: resistant; I: intermediate; conditions: ref Asan hospital, cited from earlier work; for MIC: ASEC 3 (NDM-5), resistance information of clinical isolate; for susceptibility category: ASEC 3
MDR E. coli ASEC 7 = tested on: MDR E. coli ASEC 7; set-up: method as in Asan hospital; key to susceptibility category: S: susceptible; R: resistant; I: intermediate; conditions: ref Asan hospital, cited from earlier work; for MIC: ASEC 7 (ESBL), resistance information of clinical isolate; for susceptibility category: ASEC 7
MDR E. coli ASEC 12 = tested on: MDR E. coli ASEC 12; set-up: method as in Asan hospital; key to susceptibility category: S: susceptible; R: resistant; I: intermediate; conditions: ref Asan hospital, cited from earlier work; for MIC: ASEC 12 (AmpC), resistance information of clinical isolate; for susceptibility category: ASEC 12
[7] = Escherichia coli, read-out: MIC

| Molecule | MIC (MDR E. coli ASEC 2) | susceptibility category (MDR E. coli ASEC 2) | MIC (MDR E. coli ASEC 13) | susceptibility category (MDR E. coli ASEC 13) | MIC (MDR E. coli ASEC 9) | susceptibility category (MDR E. coli ASEC 9) | MIC (MDR E. coli ASEC 11) | susceptibility category (MDR E. coli ASEC 11) | MIC (MDR E. coli ASEC 19) | susceptibility category (MDR E. coli ASEC 19) | MIC (MDR E. coli ASEC 1 [1]) | susceptibility category (MDR E. coli ASEC 1 [1]) | MIC (MDR E. coli ASEC 17 [2]) | susceptibility category (MDR E. coli ASEC 17 [2]) | MIC (MDR E. coli ASEC 6) | susceptibility category (MDR E. coli ASEC 6) | MIC (MDR E. coli ASEC 5 [3]) | susceptibility category (MDR E. coli ASEC 5 [3]) | MIC (MDR E. coli ASEC 14) | susceptibility category (MDR E. coli ASEC 14) | also measured |
| --- | --- | --- | --- | --- | --- | --- | --- | --- | --- | --- | --- | --- | --- | --- | --- | --- | --- | --- | --- | --- | --- |
| CO/N=C(\C(=O)N[C@@H]1C(=O)N2C(C(=O)O)=C(COC(C)=O)CS[C@H]12)c1csc(N)n1 [Cefotaxime] | > 32 µg/mL | R | > 32 µg/mL | R | > 32 µg/mL | R | > 32 µg/mL | R | > 32 µg/mL | R | > 32 µg/mL | R | > 32 µg/mL | R | > 32 µg/mL | R | > 32 µg/mL | R | > 32 µg/mL | R | MIC (MDR E. coli ASEC 4; [7]): > 32 µM; MIC (MDR E. coli ASEC 16; [7]): > 32 µM; MIC (MDR E. coli ASEC 17 [4]; [7]): > 32 µM; MIC (MDR E. coli ASEC 1 [5]; [7]): > 32 µM; MIC (MDR E. coli ASEC 5 [6]; [7]): > 32 µM; MIC (MDR E. coli ASEC 8): > 32 µg/mL; susceptibility category (MDR E. coli ASEC 8): R; MIC (MDR E. coli ASEC 3): > 32 µg/mL; susceptibility category (MDR E. coli ASEC 3): R; MIC (MDR E. coli ASEC 7): > 32 µg/mL; susceptibility category (MDR E. coli ASEC 7): R; MIC (MDR E. coli ASEC 12): > 32 µg/mL; susceptibility category (MDR E. coli ASEC 12): R |
| CC(C)(O/N=C(\C(=O)N[C@@H]1C(=O)N2C(C(=O)[O-])=C(C[n+]3ccccc3)CS[C@H]12)c1csc(N)n1)C(=O)O [Ceftazidime] | > 16 µg/mL | R | > 16 µg/mL | R | > 16 µg/mL | R | > 16 µg/mL | R | > 16 µg/mL | R | > 16 µg/mL | R | > 16 µg/mL | R | > 16 µg/mL | R | > 16 µg/mL | R | > 16 µg/mL | R | MIC (MDR E. coli ASEC 4; [7]): > 32 µM; MIC (MDR E. coli ASEC 16; [7]): > 32 µM; MIC (MDR E. coli ASEC 17 [4]; [7]): > 32 µM; MIC (MDR E. coli ASEC 1 [5]; [7]): > 32 µM; MIC (MDR E. coli ASEC 5 [6]; [7]): > 32 µM; MIC (MDR E. coli ASEC 8): > 16 µg/mL; susceptibility category (MDR E. coli ASEC 8): R; MIC (MDR E. coli ASEC 3): > 16 µg/mL; susceptibility category (MDR E. coli ASEC 3): R; MIC (MDR E. coli ASEC 7): > 16 µg/mL; susceptibility category (MDR E. coli ASEC 7): R; MIC (MDR E. coli ASEC 12): 16 µg/mL (≈ 29.3 µM); susceptibility category (MDR E. coli ASEC 12): R |
| C[C@@H](O)[C@H]1C(=O)N2C(C(=O)O)=C(S[C@@H]3CN[C@H](C(=O)N(C)C)C3)[C@H](C)[C@H]12 [Meropenem] | > 8 µg/mL | R | > 8 µg/mL | R | <= 1 μg mL-1 | S | <= 1 μg mL-1 | S | <= 1 μg mL-1 | S | 8 µg/mL (≈ 20.9 µM) | R | <= 1 μg mL-1 | S | > 8 µg/mL | R | <= 4 μg mL-1 | S | 8 µg/mL (≈ 20.9 µM) | R | MIC (MDR E. coli ASEC 4; [7]): > 32 µM; MIC (MDR E. coli ASEC 16; [7]): < 1 µM; MIC (MDR E. coli ASEC 17 [4]; [7]): < 1 µM; MIC (MDR E. coli ASEC 1 [5]; [7]): 1 µM (≈ 0.383 µg/mL); MIC (MDR E. coli ASEC 5 [6]; [7]): 8 µM (≈ 3.07 µg/mL); MIC (MDR E. coli ASEC 8): <= 1 μg mL-1; susceptibility category (MDR E. coli ASEC 8): S; MIC (MDR E. coli ASEC 3): > 8 µg/mL; susceptibility category (MDR E. coli ASEC 3): R; MIC (MDR E. coli ASEC 7): <= 1 μg mL-1; susceptibility category (MDR E. coli ASEC 7): S; MIC (MDR E. coli ASEC 12): > 8 µg/mL; susceptibility category (MDR E. coli ASEC 12): R |
| FKFLARTGKFL-NH2 [PN5] |  |  |  |  |  |  |  |  |  |  |  |  |  |  |  |  |  |  |  |  | MIC (MDR E. coli ASEC 4): 4 (5.30) μM; MIC (MDR E. coli ASEC 16): 4 (5.30) μM; MIC (MDR E. coli ASEC 17 [4]): 8 (10.61) μM; MIC (MDR E. coli ASEC 1 [5]): 8 (10.61) μM; MIC (MDR E. coli ASEC 5 [6]): 8 (10.61) μM |
